Results published in a melting point compilation (Tetko et al.; mined from patent text by program, amines drawn as free bases though some values may be those of a salt).

SMILES | melting point
Cc1oc(C2CCCCC2)nc1CC(=O)O | 102 to 103 °C
Cc1oc(C(C)(C)C)nc1COc1ccc(CC(OC(C)C)C(=O)O)c2sccc12 (centres undefined) | 166 to 167 °C
COc1ccc2cc(-c3cc4c(cc3[N+](=O)[O-])OCO4)ccc2c1 | 165 to 167 °C
COc1ccccc1NCN1CCOC1=O | 95.5 to 98 °C
O=C(ON=C(Br)Br)c1ccc(Cl)cc1 | 93 to 97 °C
OCC1=C(c2cccc3sccc23)N2CCN=C2S1 | 145 to 149 °C
CC(C)CC(=O)c1ccc(Cl)cc1 | 39 to 40 °C
CC1CCC(NC(=O)NS(=O)(=O)c2ccc(CCNC(=O)N3CC4CCCCC4C3=O)cc2)CC1 (centres undefined) | 153 to 155 °C
CCOC(=O)c1c(NC)n[nH]c1C | 161 to 162 °C
Cc1cc(-c2noc(C(F)(F)F)n2)cc(C)c1OCCCc1ccc(=O)[nH]c1 | 128 to 130 °C
O=C1NCCCN1C1CCN(CC[C@H](c2ccc(Cl)c(Cl)c2)[C@@H](O)c2ccnn2-c2ccccc2)CC1 (racemic) | 174 to 176 °C
C#Cc1ncn2c1CN(C)C(=O)c1c(Cl)cccc1-2 | 194 to 195 °C
O=C(NCCCCCCCNC(=O)c1ccc(OC2CCCCC2)cc1)c1ccc(OC2CCCCC2)cc1 | 144 to 145 °C
O=C(Nc1ccccc1F)OC1CN2CCC1CC2 (centres undefined) | 124 to 126 °C
CCOC(=O)C(=CNc1cscc1OCC)C(=O)OCC | 108 to 109 °C
CC(=O)c1cccc(N2CCN(CCCCOc3ccc4c(n3)NC(=O)CC4)CC2)c1Cl | 138 to 139 °C
COc1c(C2CCN(CCCCNC(=O)c3c(C)nc(-c4ccc(Cl)cc4)n3C)CC2)ccc2c1CCCC2 | 150 °C
O=[N+]([O-])c1ccc2c(c1)C(c1ccccc1)=NCc1nc(CO)cn1-2 | 250 to 251 °C
CCOC(=O)c1c(SC2CCCCC2=O)nc2cc(Cl)c(F)cc2c1O (centres undefined) | 252 to 257 °C
C=CCc1c(Br)cc(C(C)(C)c2cc(Br)c(CC=C)c(Br)c2)cc1Br | 114 °C
COC(=O)NCCCCC(=O)OC[C@@H]1CC(c2ccc(-c3ccc(N4C[C@H](Cn5ccnn5)OC4=O)cc3F)cn2)=NO1 | 90 °C
Cc1c(-c2ccc(OC(C)C)cc2)n(Cc2ccc(OCCN3CCCCCC3)cc2)c2ccc(O)cc12 | 120 to 125 °C
O=S1(=O)N=C(c2ccc(Cl)cc2)N(c2cc(Cl)cc(Cl)c2)c2ccncc21 | 284 to 286 °C
CC=CCn1c(C)c(C)c2cnnc(OCc3cc(F)cc(F)c3)c21 | 78 to 84 °C
CC(C)CC(=O)Nc1cc(-c2ccnc3c(C(=O)c4cccs4)cnn23)ccc1F | 192 to 194 °C

SMILES | melting point
CCOC(=O)c1nc(C)c(SC)c(O)n1 | 139 °C
CCN(C(=O)N(C)C)c1ccccc1-c1ccc2nnc(C)n2n1 | 138 to 140 °C
Cc1nn(CCN)c(C)c1Cc1cc(Cl)cc(Cl)c1 | 70 to 72 °C
COc1cc2ncnc(N3CCc4cc(C)ccc43)c2cc1OC | 180 to 181 °C
CCC(=O)NC(C)OC (centres undefined) | 29 to 32 °C
Nc1ccc2ncnc(Nc3ccc(OCc4ccccc4)cc3)c2c1 | 173 to 175 °C
CCc1n[nH]c(C(N)=O)c1NC(=O)c1cc(S(C)(=O)=O)ccc1OCC(C)C | 154 to 162 °C
Cc1ccc([N+](=O)[O-])cc1NC(=N)N | 135 to 142 °C
ICCCCCOc1ccc(C2=C(c3ccccc3)CCCc3cc(OC4CCCCO4)ccc32)cc1 (centres undefined) | 109 to 111 °C
COC(=O)C(O)(c1ccc(OC)cc1)c1ccc(OC)cc1 | 110 °C
O=C(OCC1OC(OC(=O)C2CCCCC2)C(OC(=O)C2CCCCC2)C(OC(=O)C2CCCCC2)C1OC(=O)C1CCCCC1)C1CCCCC1 (centres undefined) | 174 to 176 °C
CCCCCc1c(-c2ccc3cc(OCc4nnn[nH]4)ccc3c2)n(Cc2ccccc2)c2ccccc12 | 109 to 112 °C
CS(=O)(=O)N(Cc1ccccc1)c1ccc(C2CO2)cc1 (centres undefined) | 89 to 92 °C
Cc1c(C)c2c(c(C)c1N)C(c1ccccc1)CO2 (centres undefined) | 94 to 95 °C
COc1ccc(CCN2CCC(NC(C)=O)CC2)cc1OC | 152 to 154 °C
O=C(Nc1ccc(N(CCCl)CCCl)cc1)Nc1cc(CO)cc(Nc2c3ccccc3nc3ccccc23)c1 | 173 to 175 °C
O=c1c(-c2ccccc2)c(Cn2cnc3ccccc32)oc2ccc(Br)cc12 | 192 to 197 °C
CN(c1ccc(N)cc1)c1nc(=O)c2cccnc2s1 | 250 °C
CN(Cc1cccc2c1C(=O)N(C1CCC(=O)NC1=O)C2=O)C(=O)OC(C)(C)C (centres undefined) | 138 to 140 °C
O=C(O)CCCc1cc(-c2ccccc2)nc2ccccc12 | 125 °C
O=C(Nc1ccc(Br)cn1)Nc1cccc2c1C1CC3(CCN1C2=O)SCCS3 (centres undefined) | 240 °C
CN1CCC(c2[nH]c(=O)c3ccccc3c2-c2ccc(F)cc2)CC1 | 269 to 271 °C
CCOC(=O)C(O)C1OC(c2ccccc2Cl)c2cc(Cl)ccc2N(C(C)C)C1=O (centres undefined) | 126 to 128 °C
CCC1(CC)CN(C(C)(C)C)C(=O)C(C)(CC)N1OC(C)(C)C#N (centres undefined) | 78 to 80 °C
